Tests used:
[1] = target: Beta-lactamase TEM (Escherichia coli, UniProt P62593); experiment: The compound was evaluated for inhibition against Beta-lactamase TEM […]
[2] = target: Beta-lactamase class C (Enterobacter cloacae, UniProt Q59401); experiment: Inhibition of Class C beta-lactamase from Enterobacter cloacae strain P99
[3] = target: Beta-lactamase (Staphylococcus aureus, UniProt P00807); experiment: The compound was evaluated for inhibition against Beta-lactamase derived from Staphylococcus aureus
Beta-lactamase, sequence (P00807 whole entry): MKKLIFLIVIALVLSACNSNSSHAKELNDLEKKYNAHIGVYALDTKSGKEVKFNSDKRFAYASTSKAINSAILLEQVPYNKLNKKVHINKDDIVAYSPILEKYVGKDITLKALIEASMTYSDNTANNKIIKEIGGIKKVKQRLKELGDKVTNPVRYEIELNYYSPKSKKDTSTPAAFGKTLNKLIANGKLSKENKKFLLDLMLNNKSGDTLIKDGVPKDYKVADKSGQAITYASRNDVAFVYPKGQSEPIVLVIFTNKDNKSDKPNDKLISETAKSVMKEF

Beta-lactamase TEM, sequence (P62593 whole entry): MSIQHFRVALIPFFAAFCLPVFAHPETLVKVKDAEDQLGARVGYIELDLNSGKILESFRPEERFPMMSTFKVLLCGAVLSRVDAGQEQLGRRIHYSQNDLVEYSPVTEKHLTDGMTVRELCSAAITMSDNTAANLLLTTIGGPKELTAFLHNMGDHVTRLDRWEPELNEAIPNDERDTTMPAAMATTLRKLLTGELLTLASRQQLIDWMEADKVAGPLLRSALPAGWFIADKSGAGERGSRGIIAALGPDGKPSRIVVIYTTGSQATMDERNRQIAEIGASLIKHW
Beta-lactamase class C, sequence (Q59401 whole entry): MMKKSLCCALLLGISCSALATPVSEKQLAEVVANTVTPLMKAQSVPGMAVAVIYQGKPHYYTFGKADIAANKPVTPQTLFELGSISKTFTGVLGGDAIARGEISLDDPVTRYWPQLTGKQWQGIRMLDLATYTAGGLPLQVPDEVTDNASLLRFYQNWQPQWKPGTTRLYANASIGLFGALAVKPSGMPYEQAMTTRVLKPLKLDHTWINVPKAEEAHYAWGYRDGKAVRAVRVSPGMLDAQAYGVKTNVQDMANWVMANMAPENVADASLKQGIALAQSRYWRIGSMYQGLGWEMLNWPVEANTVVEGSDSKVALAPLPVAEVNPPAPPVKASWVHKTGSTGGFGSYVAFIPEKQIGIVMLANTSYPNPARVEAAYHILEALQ

SMILES	IC50 [1]	IC50 [2]	IC50 [3]
C=C1C(CSc2nnnn2C)=C(C(=O)O)N2C(=O)/C(=C/C(=O)OC(C)(C)C)[C@H]2S1(=O)=O	1.13 µM	2.38 µM	–
CSC(SC)=C1C(C)=C(C(=O)O)N2C(=O)/C(=C/c3ccccn3)[C@H]2S1(=O)=O	173 µM	0.51 µM	–
C=C1C(COC(C)=O)=C(C(=O)O)N2C(=O)/C(=C/C(=O)O)[C@H]2S1(=O)=O	498 µM	2.49 µM	230 µM
CC1=C(C(=O)O)N2C(=O)/C(=C/c3ccccn3)[C@H]2S(=O)(=O)C1C (stereo partly drawn)	74.1 µM	3.9 µM	102 µM
C=C1C(C)=C(C(=O)O)N2C(=O)/C(=C/C(=O)O)[C@H]2S1(=O)=O	277 µM	36.8 µM	–
C=C1C(COC(C)=O)=C(C(=O)O)N2C(=O)/C(=C/C(=O)OC(C)(C)C)[C@H]2S1(=O)=O	–	1.55 µM	–
CC(=O)OCC1=C(C(=O)O)N2C(=O)/C(=C/C(=O)OC(C)(C)C)[C@H]2S(=O)(=O)C1	0.03 µM	6.56 µM	977 µM
CC1=C(C(=O)O)N2C(=O)/C(=C/c3ccccn3)[C@H]2S(=O)(=O)[C@@H]1Sc1nnnn1C	31.6 µM	29 µM	844 µM
C=C1C(C)=C(C(=O)O)N2C(=O)/C(=C/c3ccccn3)[C@H]2S1(=O)=O	91.1 µM	0.039 µM	1860 µM
C=C1C(C)=C(C(=O)O)N2C(=O)/C(=C/C(=O)OC(C)(C)C)[C@H]2S1(=O)=O	–	48.6 µM	–
C=C1C(COC(C)=O)=C(C(=O)O)N2C(=O)/C(=C/c3ccccn3)[C@H]2S1(=O)=O	–	0.165 µM	733 µM
CC(=O)OCC1=C(C(=O)O)N2C(=O)/C(=C/c3ccccn3)[C@H]2S(=O)(=O)C1	34.8 µM	0.498 µM	402 µM
